pIC50: −log10 of the molar value. Entries after “also recorded” stand apart in the source; their conditions may differ. Where two headings read alike, the source gives them in different places.
Experiments:
[1] = test system: 12 BioMAP human primary cell co-culture systems; experiment: BioMAP profiling in 12 human primary cell co-culture systems; conditions: any concentration (from 10 to 33.3 μM as printed), any culture system
Procedure: Overt cytotoxicity of test compounds was assessed by total cell protein staining sulforhodamine B (Sigma-Aldrich, St. Louis, MO, USA) for adherent cells, or by cell viability staining Alamar Blue (Invitrogen, Carlsbad, CA, USA) for non-adherent cells.
Overtly adverse effects of
Proliferation of PBMC (T cells) was
140 quantiﬁ ed by Alamar blue reduction and proliferation of adherent cell types was quantiﬁ ed by SRB
PBMC viability was assessed by adding Alamar blue (Invitrogen, Camarillo, CA) to PBMC
SRB was performed by removing supernatants from plates, washing plates with
Plates are washed ag ain with PBS then,
Overtly cytotoxic compounds are

[2] = Intrinsic clearance in mouse liver microsomes; type: in vitro ADME; conditions: read-out: In vitro Clint
Text: (§1) 36 CLint: intrinsic clearance in liver microsomes. h/m: human/mouse. Papp: apparent permeability. uPPB:
(§2) 37 unbound plasma protein binding. […]

CD19+ B cells [3] = experiment: B cell cytokine release assay (anti-Ig, CpG ODN 2006, IFNα); type: cell-based; conditions: Homo sapiens, 48 h
Procedure: Cytokines in the supernatants were measured with Cytometric Bead Array kits (BD Biosciences Pharmingen, San Diego, CA, USA).

[4] = test system: CD69 on CD19+ B cells, human whole blood; experiment: Anti-IgM-induced CD69 in human whole blood; type: cell-based; conditions: B-cell, healthy donors, 18 h, read-out: IC50 anti-IgM-induced CD69 up-regulation
Text: After red blood cells lysis, CD19^+ cells were gated for CD69 analysis.

pAkt and CD69 in B cells = experiment: Ex vivo mouse whole blood assays (pAkt, CD69) after oral dosing; type: in vivo; conditions: for ED50: Mus musculus, B-cell, naïve C57BL/6N mice, read-out: ED50 inhibition of pAkt and CD69
Procedure: PI3Kδ inhibitors were administered to naïve C57BL/6N mice (Charles River Laboratories, L’Arbresle, France), by gavage at indicated time points before heparinized whole blood was obtained and divided into two aliquots. One aliquot was incubated with anti-IgD as stimulation and another PBS as basal control. pAkt in B cells or CD69 up-regulation on B cell surface of each sample was measured as described for the in vitro assays. The difference between stimulated and basal levels of mean fluorescence intensity (MFI) was calculated as Δ value.

CD19+ B cells [5] = experiment: B cell proliferation assay (anti-IgM + IL-4, [3H]thymidine); type: cell-based, human; conditions: for pIC50: anti-IgM and IL-4, 4 days
Procedure: CD19^+ B cells were isolated from PBMC of healthy volunteers by negative selection using the B cell purification kit II (Miltenyi Biotech, Bergisch Gladbach, Germany) and following manufacturer’s instructions. […] Proliferation was assessed by a multiplate beta counter (Perkin Elmer, Shelton, CT, USA).

NZB/W F1 mice = experiment: IFNα-accelerated NZB/W F1 mouse SLE model; type: in vivo
Procedure: All protocols and procedures were conducted according to German animal protection law (Tierschutzgesetz) and were approved by the local veterinarian authorities (Regierungspräsidium, Darmstadt, Germany). Ten-week-old female NZB/W F1 mice (Jackson Laboratories, Bar Harbor, ME, USA) were given a single i.v. injection of 1 × 10^8 IU/100 μl of AdV-IFN-α (adenovirus with mmIfna5_v1 insert, Biofocus, CoA.NL.09.160) in saline or left untreated (sham). Drug treatments were either initiated at 2 weeks (early intervention regimen) or 4 weeks (late intervention regimen) post AdV-IFN-α delivery until the end of the experiment (at 10 weeks). […] Serum and urine samples were collected for anti-dsDNA antibodies (by ELISA) and urinary protein creatinine ratio (UPCR) (measured by ADVIA 1800) determination, respectively, on the days indicated. Proteinuria is defined as UPCR >3.

[6] = test system: pAkt in CD19+ B cells, human whole blood; experiment: Anti-IgM-induced pAkt in human whole blood; type: cell-based; conditions: B-cell, 5 min, healthy donors
Procedure: Human whole blood was incubated with PI3Kδ inhibitors for 30 min and stimulated with 30 μg/ml anti-IgM (Jackson Immuno Research, West Grove, PA, USA) for 5 min at 37°C. […] Cell were stained with rabbit anti-pAkt (Ser473) followed by the Alexa647-conjugated F(ab′)2 goat anti-rabbit IgG (Invitrogen, Carlsbad, CA, USA), and anti-CD19-PE (BD Biosciences Pharmingen, San Diego, CA, USA). CD19^+ cells were gated for pAkt analysis.

[7] = In vivo pharmacokinetics in mouse; conditions: estimated
PI3K δ [8] = target: PI3K δ (Homo sapiens, UniProt O00329); experiment: Scintillation proximity assay, PI3Kδ enzymatic activity; type: biochemical; conditions: PI3K δ; 65 μM ATP; read-out: Enzymatic potency IC50
Chain of PI3K δ (Homo sapiens, UniProt O00329) (O00329 whole entry): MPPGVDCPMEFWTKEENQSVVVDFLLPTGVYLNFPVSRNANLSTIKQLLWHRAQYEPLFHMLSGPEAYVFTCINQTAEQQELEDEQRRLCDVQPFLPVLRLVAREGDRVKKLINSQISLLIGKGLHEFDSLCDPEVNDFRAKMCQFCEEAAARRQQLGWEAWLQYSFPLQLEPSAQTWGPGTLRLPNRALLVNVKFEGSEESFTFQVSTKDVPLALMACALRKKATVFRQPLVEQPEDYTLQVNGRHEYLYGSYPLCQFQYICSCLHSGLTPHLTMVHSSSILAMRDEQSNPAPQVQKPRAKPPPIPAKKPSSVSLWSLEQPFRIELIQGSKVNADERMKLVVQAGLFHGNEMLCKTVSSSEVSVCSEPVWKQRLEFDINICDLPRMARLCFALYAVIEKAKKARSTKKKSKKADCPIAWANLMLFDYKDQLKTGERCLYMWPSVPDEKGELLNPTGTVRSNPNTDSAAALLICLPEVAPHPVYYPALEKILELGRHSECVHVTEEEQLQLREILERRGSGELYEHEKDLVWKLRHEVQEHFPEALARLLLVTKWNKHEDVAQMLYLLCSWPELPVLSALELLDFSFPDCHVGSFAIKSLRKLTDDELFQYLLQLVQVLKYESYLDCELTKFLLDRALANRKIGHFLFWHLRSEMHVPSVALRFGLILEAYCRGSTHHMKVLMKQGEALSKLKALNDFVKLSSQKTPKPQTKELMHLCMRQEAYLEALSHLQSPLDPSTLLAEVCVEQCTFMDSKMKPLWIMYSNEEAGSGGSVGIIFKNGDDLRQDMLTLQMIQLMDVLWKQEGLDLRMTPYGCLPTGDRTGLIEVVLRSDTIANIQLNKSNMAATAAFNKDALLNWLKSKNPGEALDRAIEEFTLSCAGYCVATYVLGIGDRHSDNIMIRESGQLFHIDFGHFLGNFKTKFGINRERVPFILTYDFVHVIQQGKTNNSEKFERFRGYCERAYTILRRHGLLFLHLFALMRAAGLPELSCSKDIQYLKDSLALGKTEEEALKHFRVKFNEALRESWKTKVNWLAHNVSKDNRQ

PI3K δ [9] = experiment: as above; type: biochemical, human
[10] = test system: CD69 on CD19+ cells, PBMCs from SLE patients; experiment: Anti-IgM-induced CD69 up-regulation in PBMCs from SLE patients; type: cell-based; conditions: Homo sapiens, PBMC, 18 h, SLE patient PBMC, anti-IgM 18 h
Procedure: Heparinized human blood or buffy-coat prepared from healthy donors was obtained from the “Center de transfusion sanguine” of Geneva (Switzerland). Cryopreserved PBMCs from SLE patients were obtained from Asterand (Detroit, MI, USA). […] Studies were approved by Merck Serono ethics committee.
(A) Peripheral blood from healthy donors were collected in heparinized tubes and stimulated with anti-IgM for 5 min. Intracellular pAkt gated on CD19^+ cells were analyzed by flow cytometry. […] CD69 up-regulation on CD19^+ cells were analyzed by flow cytometry. Mean fluorescent intensity (MFI) from basal and stimulated conditions without inhibitor were used as 100% of activity. […]

CD123+/CD303+ pDC cells = experiment: Plasmacytoid dendritic cell IFN-α release assay (CpG ODN 2395); type: cell-based, human
Procedure: Plasmacytoid dendritic cells were isolated from PBMC of healthy volunteers by negative selection using pDC purification kit (Miltenyi Biotech, Bergisch Gladbach, Germany). […] IFN-α in the supernatants was measured from the culture supernatants with Verikine ELISA kit (PBL Assay Science, Piscataway, NJ, USA).

Hck = Hck (Homo sapiens, UniProt P08631); experiment: Hck kinase inhibition; type: biochemical
Chain of Hck (P08631 whole entry, species assumed): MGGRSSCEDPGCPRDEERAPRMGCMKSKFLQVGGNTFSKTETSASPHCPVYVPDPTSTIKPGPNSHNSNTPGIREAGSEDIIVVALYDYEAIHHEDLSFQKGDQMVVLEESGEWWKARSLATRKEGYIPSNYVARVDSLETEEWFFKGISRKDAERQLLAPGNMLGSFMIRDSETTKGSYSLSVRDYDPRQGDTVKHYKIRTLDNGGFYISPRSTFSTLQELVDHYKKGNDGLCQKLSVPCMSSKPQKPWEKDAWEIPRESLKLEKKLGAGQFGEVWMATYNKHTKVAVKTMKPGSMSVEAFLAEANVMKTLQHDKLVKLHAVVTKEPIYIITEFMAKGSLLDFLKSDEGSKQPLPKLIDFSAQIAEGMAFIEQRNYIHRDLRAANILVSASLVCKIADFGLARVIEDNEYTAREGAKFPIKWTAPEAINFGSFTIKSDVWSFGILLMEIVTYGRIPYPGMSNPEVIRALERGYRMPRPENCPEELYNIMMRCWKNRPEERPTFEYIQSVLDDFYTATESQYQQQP

[11] = Unbound plasma protein binding, human; type: in vitro ADME; conditions: unbound fraction
Text: as §1, §2

B cell/PBMC co-culture = experiment: BioMAP B–T system (B cell/PBMC co-culture, anti-IgM and mild TCR stimulation); type: cell-based, human; conditions: 84 h
Procedure: Positively selected primary normal human CD19^+ B cells and CD4^+ T-cells were obtained from AllCells (Emeryville, CA, USA). PBMC were isolated from buffy coats (Stanford Blood Center, Stanford, CA, USA).
The levels of readout parameters were measured by ELISA ([14], [15]). Measurement values for each biomarker readout in a compound-treated sample were divided by the mean value from eight DMSO control samples (from the same plate) to generate a ratio. All ratios were then log10 transformed and plotted (BioMAP profile). Overt cytotoxicity of test compounds was assessed by total cell protein staining sulforhodamine B (Sigma-Aldrich, St. Louis, MO, USA) for adherent cells, or by cell viability staining Alamar Blue (Invitrogen, Carlsbad, CA, USA) for non-adherent cells.
This system models both T-cell-dependent B cell activation and class-switching as would occur in a germinal center, and B-cell-dependent T-cell responses, such as cytokine release ([13]).

microsomal CLint [2]: 35 µL/min/mg
pIC50 (CD19+ B cells [3]; read-out: IC50 IL-6): 8.05
pIC50 (CD19+ B cells [3]; read-out: IC50 IL-10): 8.00
pIC50 (CD19+ B cells [3]; read-out: IC50 TNF-α): 7.74
CL/F ([7]; C57BL/6N, plasma, po): 418 mL/min/kg
half-life ([7]; C57BL/6N, plasma, po): 36 min
Ka [7]: 1.6 h⁻¹
V/F [7]: 5.8 L/kg
pIC50 (PI3K δ [8]): 7.82
pIC50 (CD123+/CD303+ pDC cells; Homo sapiens, Plasmacytoid dendritic cell, pDC, CpG ODN 2395 Type C, 18 h): 6.98
pIC50 (Hck): < 5.00
uPPB % [11]: 100%
Compound: O=C(c1nn([C@@H]2CCCN(CCN3CCOCC3)C2)c2c1CS(=O)(=O)c1cc(F)ccc1-2)N1CCOCC1 [MSC2364588, (R)-7-fluoro-3-(morpholin-4-ylcarbonyl)-1-[1-(2-morpholin-4-ylethyl)piperidin-3-yl]-1,4-dihydrothiochro-meno[4,3-c]pyrazole 5,5-dioxide]
Cytotoxicity [1]: No signs of cytotoxicity
pIC50 [4]: 7.68
Effect on pAkt and CD69 (pAkt and CD69 in B cells; 6 h post administration): almost no effect
ED50 (pAkt and CD69 in B cells; 1 h time point): 3 mg/kg
ED50 (pAkt and CD69 in B cells; 2 h): ~10 mg/kg
Potency relative to MSC2360844 (CD19+ B cells [5]; B cell function): 10 times
pIC50 (CD19+ B cells [5]; Homo sapiens, B-cell, 96 h): 8.15
pIC50 (CD19+ B cells [5]): 8.22
Proteinuria progression / disease severity (NZB/W F1 mice; half daily dose given twice daily, early intervention): reduces disease severity; also recorded: Equivalent results
Drug-related body weight loss (NZB/W F1 mice; throughout the studies, data not shown): no drug-related body weight loss
pIC50 [6]: 7.49
Potency relative to MSC2360844 (PI3K δ [9]; all assays, cell types and in vitro enzymatic activity): 5–10 times
Potency relative to MSC2360844 (PI3K δ [9]; enzymatic and cellular contexts): 10 fold
pIC50 ([10]; another donor (Figure 4C, right)): 7.92
pIC50 ([10]; one donor (Figure 4C, left)): 8.05
Suppression of IFNα production by pDCs (CD123+/CD303+ pDC cells; CpG oligodeoxynucleotide-induced, TLR9-mediated): suppressed
B cell proliferation and IgG secretion, IL-17A, IL-2 and TNFα release (B cell/PBMC co-culture): significantly and dose-dependently inhibited
IL-6 levels (B cell/PBMC co-culture): no effect

— publication PMC4033217, “Characterization of Novel PI3Kδ Inhibitors as Potential Therapeutics for SLE and Lupus Nephritis in Pre-Clinical Studies” (Frontiers in Immunology, 2014)
